Measured values reported in PubChem BioAssay AID1324 (NMMLSC, 2008).
pEC50: −log10 of the molar value. Active and inactive are the calls of the source. The rule behind the calls is not given here.

What follows are molecules tested against glutathione S-transferase (GST-GSH binding) (assay: GST–glutathione interaction disruption – biochemical, multiplex beads, flow cytometry, HPSMTB buffer, profiling panel (AID 1324;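 note: glutathione beads loaded with GST-green fluorescent protein and no fluorescent Bim peptide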)). Conditions: multiplex bead flow cytometry, MCF.

Row | Compound | pEC50 | EC50
1 | COc1cc2[nH]c(=S)nc(NCCc3ccc(S(N)(=O)=O)cc3)c2cc1OC | 5.44 | 
2 | O=S1(=O)N=C(N(CCO)/N=C/c2ccncc2)c2ccccc21 |  | inactive

Same assay, conditions: multiplex bead flow cytometry, MCF, active compounds read high, concentration not given here

Row | Compound | percent span inhibition
3 | COC(=O)CSc1ncnc2c1sc1nc(-c3ccco3)c3c(c12)CC(C)(C)OC3 | inactive
4 | CCOc1cc(/C=C2/N=C(C)C(C(=O)OC)=C2O)ccc1O | inactive
5 | CCc1cccc(NC(=O)COc2ccccc2)c1 | inactive
6 | CCN(CC)c1ccc(NC(=O)c2ccc(=O)[nH]c2)cc1S(=O)(=O)Nc1ccccc1OC | inactive
7 | Clc1nssc1=Nc1ccccc1 | inactive
8 | O=C(Cn1c(-c2ccccc2)noc1=O)N1CCC(Cc2ccccc2)CC1 | inactive
9 | CCOc1ccc(C2=Nn3c(nnc3-c3ccccn3)SC2)cc1 | inactive
10 | CCOC(=O)/C(=C\c1ccc(Cl)cc1)c1nc2sc(C)c(C)c2c(=O)[nH]1 | inactive
11 | Cc1ccc(-n2[nH]c(C)c(/C=N/Nc3ccc([N+](=O)[O-])cc3[N+](=O)[O-])c2=O)cc1C | inactive
12 | COc1ccc2oc(-c3ccccc3)c(C(=O)N3CCOCC3)c2c1 | inactive
13 | Cc1cc(-c2csc(N)n2)c(C)n1C | inactive
14 | CCNC(=S)Nc1cc(OCC)c(NC(=O)c2cccs2)cc1OCC | inactive
15 | Cc1ccc(-c2nc(N3CCOCC3)s[n+]2-c2ccccc2)cc1 | inactive
16 | CCc1ccc(NC(=O)Cc2ccc(OC)cc2)cc1 | inactive
17 | CN(CC(=O)O/N=C(\N)c1ccc([N+](=O)[O-])cc1)S(=O)(=O)c1ccccc1 | inactive
18 | O=C(Cc1ccc(-c2ccccc2)cc1)NC1CCCC1 | inactive
19 | Cc1cc(C)nc(/N=c2/ssnc2Cl)c1 | inactive
20 | CCc1ccc(NC(=O)CC2NCCNC2=O)cc1 (stereo not given) | inactive
21 | COc1cc(/C=C2/NC(=O)N(Cc3ccccc3F)C2=O)cc(OC)c1O | inactive

Row | Compound | percent span inhibition
22 | CC1(C)SC(=S)N(NC(=O)Nc2ccccc2)C1N(O)C(=O)Nc1cccc2ccccc12 (stereo not given) | inactive
23 | CC(C)=C1C(=O)NN(c2ccc(C)c(Cl)c2)C1=O | inactive
24 | CCOc1ccc(NCc2ccccc2OCc2cccc(F)c2)cc1 | inactive
25 | COC(=O)Cc1cc(=O)[nH]c(Nc2nc3ccccc3o2)n1 | inactive
26 | Fc1ccc(C2=Nn3c(Cc4ccccc4F)nnc3SC2)cc1 | inactive
27 | O=C(Nc1nnc(C2CC2)s1)C1Cc2ccccc2CN1S(=O)(=O)c1ccccc1F (stereo not given) | inactive
28 | O=C(/C=C/c1ccc(-c2ccccc2[N+](=O)[O-])o1)c1ccccc1 | inactive
29 | Cc1nc2cc(F)ccc2n1C1CCN(C(=O)c2c(F)cccc2F)CC1 | inactive
30 | COc1ccc(NC(=O)C2=C(C)NC(=O)NC2c2cccc(OC)c2OC)c(OC)c1 (stereo not given) | inactive
31 | O=C(N/N=C/c1cccnc1)c1cccc(S(=O)(=O)N2CCCC2)c1 | inactive
32 | N#Cc1cc(-c2ccccc2)nn1-c1ccccc1 | inactive
33 | O=C(NNC(=O)C12CC3CC(CC(C3)C1)C2)c1ccco1 | inactive
34 | CCSc1nnc(NC(=O)c2c(-c3ccccc3Cl)noc2C)s1 | inactive
35 | CC(C)CCN1CCN(Cc2cccc3cccnc23)CC1CCO (stereo not given) | inactive
36 | Cc1nonc1NC(=O)CSc1nnc(-c2ccoc2C)n1C | inactive
37 | COC(=O)Cc1ccc(NC(=S)N2CCN(c3cccc(O)c3)CC2)cc1 | inactive
38 | COc1ccc(NC(=O)c2cc(-c3ccc(C)o3)nc3ccccc23)cc1OC | inactive
39 | Cc1ccc(Nc2nc(-c3ccccc3)c(CC(=O)O)s2)cc1 | inactive
40 | Cc1ccnc(NS(=O)(=O)c2ccc(NS(=O)(=O)c3cccs3)cc2)n1 | inactive
